Measured values: patent US7851637B2, “Compounds and methods for inhibiting the interaction of BCL proteins with binding partners” (Infinity Pharmaceuticals, Inc., priority 2004, dated 2010)
pIC50, pKi: −log10 of the molar value. Where two headings read alike, the source gives them in different places.

Experiments:
[1] = molecular target: Bcl-2 (Homo sapiens, UniProt P10415); experiment: Bcl-2 binding affinity analysis (fluorescence polarization binding assay)
How it was run: (§1)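 Quantitative binding by polarized-fluorescence detection; in vitro, no cells involved.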

[2] = molecular target: Bcl-xL (Homo sapiens, UniProt Q07817); experiment: Bcl-xL binding affinity analysis (fluorescence polarization binding assay); set-up: scale not given here
How it was run: as §1

[3] = system: Human Pancreatic Cancer Cell Line Panc1; experiment: Cell death assay (propidium iodide/Hoechst) in Panc1 cells with or without camptothecin; format: cell-based; conditions: 72 hours, % cell death by propidium iodide/Hoechst
Protocol: When RL-cells are exposed to isoxazolidine compounds of the present invention, the inhibitors show a dose-dependent cell-killing in the Alamar blue cytoxicity assay with IC50 values of from about 100 μM to about 1 μM (See Examples). When Panc1 cells are exposed to the isoxazolidine compounds of the present invention in combination with camptothecin, the inhibitors show a synergistic dose-dependent cell killing in the propidium iodide exclusion cell survival assay with IC50 values of from about 100 μM to about 1 μM (See Examples).
• 1) Compounds were serially diluted in DMSO from a 9 mM stock to a final concentration of 0.004 mM in a 96 well plate. • 2) Assay plates were prepared by diluting compounds 310 fold into 150 ul of medium containing 10,000 cells/well, with or without 3 uM Camptothecin, resulting in a final DMSO concentration of 0.3% and a compound concentration range from 29 uM to […] for each compound. • 3) Assay plates were incubated at 37 C, 5% CO2 for 72 hours. • 4) After 72 hours, propidium iodide and Hoechst dye were added to each well according to manufacturer's instruction. • 5) Plates were imaged on a fluorescence microscope at wavelengths Ex560/Em650 (Propidium iodide) and Ex360/Em465 (Hoechst) • 6) MetaMorph imaging software was used to determine % cell death by dividing the number of propidium iodide stained cells (dead cells) by the number of Hoechst stained cells (all cells), multipled by 100, in each field.
Panc1 invitro cellular data is presented below for various compounds of the invention.

[4] = Homo sapiens, PANC-1, without camptothecin, read-out: Panc1 − Cpt IC50
[5] = with 3 uM Camptothecin, read-out: Panc1 + Cpt IC50

Bcl-2, sequence (P10415 whole entry): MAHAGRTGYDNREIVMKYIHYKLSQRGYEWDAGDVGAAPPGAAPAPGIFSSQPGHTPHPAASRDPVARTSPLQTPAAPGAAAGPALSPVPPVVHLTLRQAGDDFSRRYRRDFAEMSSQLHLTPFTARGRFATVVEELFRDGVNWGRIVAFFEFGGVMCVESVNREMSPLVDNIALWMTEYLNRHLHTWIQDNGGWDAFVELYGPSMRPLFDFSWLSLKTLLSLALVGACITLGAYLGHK
Bcl-xL, sequence (Q07817 whole entry): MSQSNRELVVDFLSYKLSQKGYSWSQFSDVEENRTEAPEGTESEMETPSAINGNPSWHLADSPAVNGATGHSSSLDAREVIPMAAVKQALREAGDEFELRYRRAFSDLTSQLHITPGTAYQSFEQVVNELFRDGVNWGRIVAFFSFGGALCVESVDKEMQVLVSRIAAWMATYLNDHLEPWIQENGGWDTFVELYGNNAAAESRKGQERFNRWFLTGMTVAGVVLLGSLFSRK

Row | pKi [1] | Bcl-XL binding affinity Ki [2] | SMILES | pIC50 [3, 4] | pIC50 [3, 5] | pIC50 ([3]; without camptothecin, read-out: Panc1 − Cpt IC50)
1 | > 6.10 | ♯ | CC(O)C1C(CO)ON(Cc2cccc(CN(CCN3CCCC3)Cc3ccccc3)c2)C1C(=O)NC1CC2CC(C1C)C2(C)C (stereo not shown) [Compound 430] | < 5.60 | < 5.60 | 
2 | > 6.10 | ♯ | CC(C)C[C@@H](CN(C)C)N(Cc1cccc(CN2O[C@@H](CO)C([C@H](C)O)[C@H]2C(=O)N[C@H]2C[C@H]3C[C@@H]([C@@H]2C)C3(C)C)c1)Cc1c(O)cccc1F (stereo partly shown) [Compound 306] | < 5.60 | 5.74 to 5.89 | 
3 | > 6.10 | ♯ | CC(O)C1C(CO)ON(Cc2cccc(CN(CCN3CCCCCC3)Cc3ccccc3)c2)C1C(=O)NC1CC2CC(C1C)C2(C)C (stereo not shown) [Compound 427] | < 5.60 | < 5.60 | 
4 | > 6.10 | ♯ | CC(O)C1C(CO)ON(Cc2cccc(CNC(CN(C)C)CC(C)(C)C)c2)C1C(=O)NC1CC2CC(C1C)C2(C)C (stereo not shown) [Compound 455] | < 5.60 | < 5.60 | 
5 | > 6.10 | ♯ | C[C@@H]1[C@@H](NC(=O)[C@@H]2C([C@H](C)O)[C@H](CO)ON2Cc2cccc(CN(Cc3ccccc3Br)[C@H](CN(C)C)C(C)(C)C)c2)C[C@H]2C[C@@H]1C2(C)C (stereo partly shown) [Compound 422] | < 5.60 | 5.74 to 5.89 | 
6 | > 6.10 | ♯ | COc1cccc(F)c1CN(Cc1cccc(CN2OC(CO)C(C(C)O)C2C(=O)NC2CC3CC(C2C)C3(C)C)c1)C(CC(C)C)CN(C)C (stereo not shown) [Compound 305] | 5.74 to 5.89 | > 5.89 | 
7 | > 6.10 | ♯ | CC(C)C(CN(C)C)NCc1cccc(CN2OC(CO)C(C(C)O)C2C(=O)NC2CC3CC(C2C)C3(C)C)c1 (stereo not shown) [Compound 463] |  |  | < 5.60
8 | > 6.10 | ♯ | CCOc1c(CN2O[C@@H](CO)[C@@H]([C@H](C)O)[C@H]2C(=O)N[C@H]2C[C@H]3C[C@@H]([C@@H]2C)C3(C)C)cccc1-c1cccc(C(=O)N[C@H](CC(C)C)CN(C)C)c1 [Compound 494] | < 5.60 | < 5.60 | 
9 | > 6.10 | ♯ | C[C@@H]1[C@@H](NC(=O)[C@@H]2[C@H]([C@H](C)O)[C@H](CO)ON2Cc2cccc(N(CCc3ccccc3)CCN(C)C)c2)C[C@H]2C[C@@H]1C2(C)C [Compound 578] | < 5.60 | 5.60 to 5.74 | 
10 | > 6.10 | ♯ | CC(C)CC(CN(C)C)N(Cc1cccc(CN2OC(CO)C(C(C)O)C2C(=O)NC2CC3CC(C2C)C3(C)C)c1)Cc1c(F)cccc1Cl (stereo not shown) [Compound 307] | < 5.60 | < 5.60 | 
11 | > 6.10 | ♯ | CC(O)C1C(CO)ON(Cc2cccc(CN(Cc3ccccc3)C(Cc3ccccc3)CN(C)C)c2)C1C(=O)NC1CC2CC(C1C)C2(C)C (stereo not shown) [Compound 423] | < 5.60 | < 5.60 | 
12 | > 6.10 | ♯ | CC(C)C[C@@H](CN(C)C)N(Cc1cccc(CN2O[C@@H](CO)C([C@H](C)O)[C@H]2C(=O)N[C@H]2C[C@H]3C[C@@H]([C@@H]2C)C3(C)C)c1)Cc1c(Cl)cccc1Cl (stereo partly shown) [Compound 317] | < 5.60 | < 5.60 | 
13 | > 6.10 | ♯ | CC(C)CC(CN(C)C)N(Cc1cccc(CN2OC(CO)C(C(C)O)C2C(=O)NC2CC3CC(C2C)C3(C)C)c1)Cc1ccccc1I (stereo not shown) [Compound 318] | < 5.60 | < 5.60 | 
14 |  |  | CNC(=O)c1ccccc1-c1cccc(CN2O[C@@H](CO)[C@@H]([C@H](C)O)[C@H]2C(=O)N[C@H]2C[C@H]3C[C@@H]([C@@H]2C)C3(C)C)c1 [Compound 89] | 5.60 to 5.74 | 5.74 to 5.89 | 
15 |  |  | C[C@@H]1[C@@H](NC(=O)[C@@H]2[C@H]([C@H](C)O)[C@H](CO)ON2Cc2cccc(C#CC3(NC(=O)C4CCN(C)CC4)CCCCC3)c2)CC2C[C@@H]1C2(C)C [Compound 90] | < 5.60 | 5.74 to 5.89 | 
